pKi: −log10 of the molar value.

These results are taken from BindingDB's records for doi:10.1021/jm000119i (Rensselaer Polytechnic Institute, 2000).

The nature of the assay: Binding affinity to displace radioligand [3H]naltrindole on Opioid receptor delta 1 in guinea pig membranes.
As usually defined, the pKi is the negative decadic logarithm of the Ki, by convention in mol/L. A lower pKi goes with a high Ki. Turning to `CN1CC[C@]23c4c5ccc(NCc6ccccc6)c4O[C@H]2[C@@H](O)C=C[C@H]3[C@H]1C5`, the pKi was 5.26.

Compound `CN1CC[C@]23c4c5ccc(N)c4O[C@H]2[C@@H](O)C=C[C@H]3[C@H]1C5` had a pKi of 5.62.

Turning to `CN(C)c1ccc2c3c1O[C@H]1[C@@H](O)C=C[C@H]4[C@@H](C2)N(C)CC[C@@]341`, the pKi was 5.80.

Turning to `CN1CC[C@]23c4c5ccc(Nc6ccccc6)c4O[C@H]2[C@@H](O)C=C[C@H]3[C@H]1C5`, the pKi is 5.82.

With `CNc1ccc2c3c1O[C@H]1[C@@H](O)C=C[C@H]4[C@@H](C2)N(C)CC[C@@]341`, the pKi was 5.24.
